According to US7138408B2, “HIV integrase inhibitors, pharmaceutical compositions and methods for their use” (priority 2003, dated 2006):

What follows are compounds tested against T1, HIV-1 integrase (SF1) (Human immunodeficiency virus type 1 group M subtype B, UniProt P04585, C1203S/C1427S/F1286D/F1332K/W1278D) (assay: Integrase strand-transfer scintillation proximity assay).
T1 construct: 6-histidine tag with thrombin cleavage site (N, cleaved yes); made in house; host or cells: E. coli BL21 (DE3)
Format: biochemical
Source text: Oligonucleotides: Oligonucleotide #1-5′-(biotin)[…]-3′ (SEQ ID NO: 1) and oligonucleotide #2-5′-[…]-3′ (SEQ ID NO: 2), were synthesized by TriLink BioTechnologies, Inc. (San Diego, Calif.). The annealed product represents preprocessed viral ds-DNA derived from the LTR U5 sequence of the viral genome. A ds-DNA control to test for non-specific interactions was made using a 3′ di-deoxy derivative of oligonucleotide #1 annealed to oligonucleotide #2. The CA overhang at the 5′ end of the non-biotinylated strand of the ds-DNA was created artificially by using a complimentary DNA oligonucleotide shortened by 2 base pairs. This configuration eliminates the requisite 3′ processing step of the integrase enzyme prior to the strand-transfer mechanism.
Host ds-DNA was prepared as an unlabeled and [^3H]-thymidine labeled product from annealed oligonucleotide #3-5-[…]-3′ (SEQ ID NO: 3), and oligonucleotide #4-5′-[…]-3′ (SEQ ID NO: 4), both synthesized by TriLink BioTechnologies, Inc. (San Diego, Calif.). The annealed product had overhanging 3′ ends of poly(dA). Host DNA was custom radiolabeled by PerkinElmer Life Sciences Inc. (Boston, Mass.) using an enzymatic method with a 12/1 ratio of [methyl-^3H]dTTP/cold ds-DNA to yield 5′-blunt end ds-DNA with a specific activity of>900 Ci/mmol. The radiolabeled product was purified using a NENSORB cartridge and stored in stabilized aqueous solution (PerkinElmer). The final radiolabeled product had six [^3H]-thymidine nucleotides at both 5′ ends of the host ds-DNA.
Reagents: Streptavidin-coated polyvinyltoluene (PVT) SPA beads were purchased from Amersham Pharmacia (Piscataway, N.J.). Cesium chloride was purchased from Shelton Scientific, Inc. (Shelton, Conn.). White polystyrene, flat bottom, non-binding surface 384-well plates were purchased from Corning. All other buffer components were purchased from Sigma (St. Louis, Mo.) unless otherwise indicated.
Enzyme Construction: Full-length HIV-1 integrase (SF1) sequence (amino acids 1–288) (SEQ ID NO: 5) was constructed in a pET 15b vector (Novagen, Madison, Wis.) with mutations outlined by Chen et al. (Chen, C-H. J. et al., PNAS 97: 8233–8238 (2000)) that facilitate solubility of the enzyme and decrease oxidation. The vector contained a T7 promoter, a 6-histidine tag at the amino terminus, and a thrombin cleavage site. Mutations C56S, W131D, F139D, F185K, and C280S were introduced using a QuickChange kit (Stratagene, San Diego, Calif.). The construct was confirmed through DNA sequencing.
Enzyme Purification: The penta-mutant was expressed in E. coli BL21 (DE3) cells and induced with 1 mM isopropyl-1 thio-β-D-galactopyranoside (IPTG) when cells reached an optical density between 0.8–1.0 at 600 nm. Cells were lysed in 20 mM HEPES (pH 7.5), 1.5 M NaCl, 5 mM imidazole, and 2 mM 2-mercaptoethanol. The enzyme was purified following standard methods for histidine tagged proteins (Jenkins, T. M. et al., Journal of Biological Chemistry 271: 7712–7718 (1996)). Specifically, cell lysate was passed over a Ni-Nta column (Qiagen, Chatsworth, Calif.) with the 6-His tagged integrase protein eluted by adding 250 mM imidazole. A G-25 Sepharose® column (Amersham Pharmacia, Piscataway, N.J.) was used to exchange the buffer prior to thrombin cleavage of the integrase protein and subsequent removal of thrombin using a benzamidine-Sepharose® 6B column. The cleaved 6-His tag was separated from the integrase using a second Ni-Nta column. The integrase was further purified with a heparin-Sepharose® column and a gradient of NaCl (0.4 to 1 M) in 20 mM HEPES (pH 7.5), 400 mM NaCl, and 1 mM DTT buffer. The purified protein was dialyzed against 20 mM HEPES (pH 7.5), 800 mM NaCl, and 1 mM DTT and concentrated by stirred cell ultrafiltration (Millipore, Bedford, Mass.) or Ultra-free spin concentrators (Millipore, Bedford, Mass.) when required. […]

In order of rising IC50:
1. O=C(NO)c1cc2c3ccccc3n(Cc3ccc(F)cc3)c2cn1 [Compound 1, 9-(4-Fluorobenzyl)-N-hydroxy-9H-β-carboline-3-carboxamide]  234 nM
2. O=C(NO)c1cc2c3ccccc3n(Cc3ccccc3)c2cn1 [Compound 4, 9-Benzyl-N-hydroxy-9H-β-carboline-3-carboxamide]  281 nM
3. O=C(NO)c1cc2c3ccccc3n(Cc3cccc(Cl)c3F)c2cn1 [Compound 3, 9-(3-Chloro-2-fluorobenzyl)-N-hydroxy-9H-β-carboline-3-carboxamide]  400 nM
4. O=C(NO)c1cc2c3ccccc3n(Cc3ccc(F)cc3F)c2cn1 [Compound 6, 9-(2,4-Difluorobenzyl)-N-hydroxy-9H-β-carboline-3-carboxamide]  463 nM
5. O=C(NO)c1cc2c3ccccc3n(Cc3ccc(Cl)s3)c2cn1 [Compound 2, 9-[(5-Chlorothien-2-yl)methyl]-N-hydroxy-9H-β-carboline-3-carboxamide]  494 nM
6. CN(O)C(=O)c1cc2c3ccccc3n(Cc3ccc(F)cc3)c2cn1 [Compound 13, 9-(4-Fluorobenzyl)-N-hydroxy-N-methyl-9H-β-carboline-3-carboxamide]  699 nM
7. Nc1ccc2c(c1)c1cc(C(=O)NO)ncc1n2Cc1cccc(Cl)c1 [Compound 8, 6-Amino-9-(3-chlorobenzyl)-N-hydroxy-9H-β-carboline-3-carboxamide]  713 nM
8. O=C(NO)c1cc2c3ccccc3n(Cc3c(F)ccc(Cl)c3F)c2cn1 [Compound 7, 9-(3-Chloro-2,6-difluorobenzyl)-N-hydroxy-9H-β-carboline-3-carboxamide]  1390 nM
